{
  "source": "ChEMBL document CHEMBL5042552",
  "about": "“Site-Specific Isopeptide Bond Formation: A Powerful Tool for the Generation of Potent and Nontoxic Antimicrobial Peptides” (J Med Chem, 2022)",
  "key": {"[1]": {"experiment": "Hemolytic activity in human erythrocytes at 2.5 to 80 uM incubated for 1 hr by microplate reader assay", "type": "toxicity, cell-based", "conditions": "erythrocyte, dose 2.5-80 µM"}, "[2]": {"tested_on": "HEK293", "experiment": "Cytotoxicity against HEK293 cells assessed as reduction in cell viability at 10 to 100 uM incubated for 24 hrs by XTT assay", "type": "toxicity, cell-based", "conditions": "human, hek293, 24 h, dose 10-100 µM"}, "[3]": {"tested_on": "RAW264.7", "experiment": "Cytotoxicity against mouse RAW264.7 cells assessed as reduction in cell viability at 10 to 100 uM incubated for 24 hrs by XTT assay", "type": "toxicity, cell-based", "conditions": "raw264.7, 24 h, dose 10-100 µM"}, "[4]": {"biological_target": "Trypsin (Homo sapiens, UniProt P07477+P07478+P35030)", "experiment": "Stability of compound assessed as trypsin (unknown origin) mediated compound degradation at 100 uM measured after 30 mins by RP-HPLC method", "type": "ADME, protein assay", "conditions": "0.5 h"}, "[5]": {"experiment": "Stability in human plasma after 2 hrs by RP-HPLC method", "type": "ADME, cell-free"}, "[6]": {"tested_on": "Escherichia coli", "experiment": "Induction of membrane permeabilization in Escherichia coli at MIC concentration by SYTOX-green staining based flow cytometry method", "type": "functional"}, "[7]": {"experiment": "Hemolytic activity in human erythrocytes at 12.5 uM incubated for 1 hr by microplate reader assay", "type": "toxicity, cell-based", "conditions": "erythrocyte"}, "[8]": {"tested_on": "Pseudomonas aeruginosa", "experiment": "Induction of membrane permeabilization in Pseudomonas aeruginosa at MIC concentration by SYTOX-green staining based flow cytometry method", "type": "functional"}, "[9]": {"tested_on": "Staphylococcus aureus", "experiment": "Induction of membrane permeabilization in Staphylococcus aureus at MIC concentration by SYTOX-green staining based flow cytometry method", "type": "functional"}, "[10]": {"tested_on": "Bacillus subtilis", "experiment": "Induction of membrane permeabilization in Bacillus subtilis at MIC concentration by SYTOX-green staining based flow cytometry method", "type": "functional"}, "[11]": {"tested_on": "Cell membrane", "experiment": "Disruption of membrane integrity in Pseudomonas aeruginosa at MIC by […] green dye based confocal microscopy analysis"}, "[12]": {"tested_on": "Cell membrane", "experiment": "Disruption of membrane integrity in Escherichia coli at MIC by […] green dye based confocal microscopy analysis"}, "[13]": {"tested_on": "Cell membrane", "experiment": "Disruption of membrane integrity in Staphylococcus aureus at MIC by […] green dye based confocal microscopy analysis"}, "[14]": {"tested_on": "Cell membrane", "experiment": "Disruption of membrane integrity in Bacillus subtilis at MIC by […] green dye based confocal microscopy analysis"}, "[15]": {"tested_on": "RAW264.7", "experiment": "Cytotoxicity against mouse RAW264.7 cells assessed as reduction in cell viability at 100 uM incubated for 24 hrs by XTT assay", "type": "toxicity, cell-based", "conditions": "raw264.7, 24 h"}, "[16]": {"experiment": "Hemolytic activity in human erythrocytes at 80 uM incubated for 1 hr by microplate reader assay", "type": "toxicity, cell-based", "conditions": "erythrocyte"}},
  "note": "The source made the active and inactive calls. No cut-off for these calls is given here. Starred links: 1 amine or outer side, 2 acyl side, 3 side chain; linkers in the order of their positions; H or OH if unused. Positions of bridges follow the written chain, without caps; N, C: chain ends. Non-standard residues stand in square brackets, D forms with d. Residues, ends and D or L forms follow the SMILES beside them. Groups on a side chain read outwards from the residue. Chains are numbered I, II in the order given. εLys = N[C@@H](CCCCN[*:1])C(=O)[*:2]",
  "data": [
    {"smiles": "CC(C)C[C@H](NC(=O)[C@H](CC(C)C)NC(=O)[C@H](CCCCN)NC(=O)[C@H](CC(C)C)NC(=O)[C@H](CC(C)C)NC(=O)[C@H](CCCCN)NC(=O)[C@H](CCCCN)NC(=O)[C@H](CC(C)C)NC(=O)[C@H](CC(C)C)NC(=O)[C@H](CCCCN)NC(=O)[C@H](CCCCN)NC(=O)[C@H](CC(C)C)NC(=O)[C@H](CC(C)C)NC(=O)[C@@H](N)CCCCNC(=O)[C@@H](N)CC(C)C)C(N)=O", "note": "(H-K(Leu)LLKKLLKKLLKLL-NH2)", "values": [
      {"measurement": "Activity", "setting": "[1]", "result": "Non-Toxic"},
      {"measurement": "Activity", "setting": "[2]", "result": "Toxic"},
      {"measurement": "Activity", "setting": "[3]", "result": "Toxic"},
      {"measurement": "Stability", "setting": "[4]", "result": "Unstable"},
      {"measurement": "Stability", "setting": "[5]", "result": "Stable"}
    ]},
    {"smiles": "CC(C)C[C@H](NC(=O)[C@H](CC(C)C)NC(=O)[C@H](CCCCN)NC(=O)[C@H](CC(C)C)NC(=O)[C@H](CC(C)C)NC(=O)[C@H](CCCCN)NC(=O)[C@H](CCCCN)NC(=O)[C@H](CC(C)C)NC(=O)[C@H](CC(C)C)NC(=O)[C@H](CCCCN)NC(=O)[C@@H](N)CCCCNC(=O)[C@H](CC(C)C)NC(=O)[C@H](CC(C)C)NC(=O)[C@H](CCCCN)NC(=O)[C@@H](N)CC(C)C)C(N)=O", "note": "(H-K([Leu-Leu-Lys-Leu])KLLKKLLKLL-NH2)", "values": [
      {"measurement": "Activity", "setting": "[1]", "result": "Non-Toxic"},
      {"measurement": "Activity", "setting": "[2]", "result": "Toxic"},
      {"measurement": "Activity", "setting": "[3]", "result": "Toxic"},
      {"measurement": "Stability", "setting": "[4]", "result": "Unstable"},
      {"measurement": "Stability", "setting": "[5]", "result": "Stable"}
    ]},
    {"smiles": "CC(C)C[C@H](NC(=O)[C@H](CC(C)C)NC(=O)[C@H](CCCCN)NC(=O)[C@H](CC(C)C)NC(=O)[C@H](CC(C)C)NC(=O)[C@H](CCCCN)NC(=O)[C@H](CCCCN)NC(=O)[C@H](CC(C)C)NC(=O)[C@H](CC(C)C)NC(=O)[C@H](CCCCN)NC(=O)[C@H](CCCCN)NC(=O)[C@H](CC(C)C)NC(=O)[C@H](CC(C)C)NC(=O)[C@H](CCCCN)NC(=O)[C@@H](N)CC(C)C)C(N)=O", "note": "(H-LKLLKKLLKKLLKLL-NH2)", "values": [
      {"measurement": "Activity", "setting": "[6]", "result": 98, "unit": "%"},
      {"measurement": "Activity", "setting": "[7]", "result": "Toxic"},
      {"measurement": "Activity", "setting": "[2]", "result": "Toxic"},
      {"measurement": "Activity", "setting": "[8]", "result": 98, "unit": "%"},
      {"measurement": "Activity", "setting": "[9]", "result": 46, "unit": "%"},
      {"measurement": "Activity", "setting": "[10]", "result": 41, "unit": "%"},
      {"measurement": "Activity", "setting": "[11]", "result": "inactive"},
      {"measurement": "Activity", "setting": "[12]", "result": "inactive"},
      {"measurement": "Activity", "setting": "[13]", "result": "inactive"},
      {"measurement": "Activity", "setting": "[14]", "result": "inactive"},
      {"measurement": "Activity", "setting": "[3]", "result": "Toxic"},
      {"measurement": "Stability", "setting": "[4]", "result": "Unstable"},
      {"measurement": "Stability", "setting": "[5]", "result": "Stable"}
    ]},
    {"smiles": "CC(C)C[C@H](NC(=O)[C@H](CC(C)C)NC(=O)[C@@H](N)CCCCNC(=O)[C@H](CC(C)C)NC(=O)[C@H](CC(C)C)NC(=O)[C@H](CCCCN)NC(=O)[C@H](CCCCN)NC(=O)[C@H](CC(C)C)NC(=O)[C@H](CC(C)C)NC(=O)[C@H](CCCCN)NC(=O)[C@H](CCCCN)NC(=O)[C@H](CC(C)C)NC(=O)[C@H](CC(C)C)NC(=O)[C@H](CCCCN)NC(=O)[C@@H](N)CC(C)C)C(N)=O", "note": "(H-LKLLKKLLKKLL[εLys]LL-NH2)", "values": [
      {"measurement": "Activity", "setting": "[2]", "result": "Toxic"},
      {"measurement": "Activity", "setting": "[3]", "result": "Toxic"},
      {"measurement": "Stability", "setting": "[4]", "result": "Unstable"},
      {"measurement": "Stability", "setting": "[5]", "result": "Stable"}
    ]},
    {"smiles": "CC(C)C[C@H](NC(=O)[C@H](CC(C)C)NC(=O)[C@H](CCCCN)NC(=O)[C@H](CC(C)C)NC(=O)[C@H](CC(C)C)NC(=O)[C@@H](N)CCCCNC(=O)[C@H](CCCCN)NC(=O)[C@H](CC(C)C)NC(=O)[C@H](CC(C)C)NC(=O)[C@H](CCCCN)NC(=O)[C@H](CCCCN)NC(=O)[C@H](CC(C)C)NC(=O)[C@H](CC(C)C)NC(=O)[C@H](CCCCN)NC(=O)[C@@H](N)CC(C)C)C(N)=O", "note": "(H-LKLLKKLLK[εLys]LLKLL-NH2)", "values": [
      {"measurement": "Activity", "setting": "[1]", "result": "Non-Toxic"},
      {"measurement": "Activity", "setting": "[15]", "result": "Non-Toxic"},
      {"measurement": "Activity", "setting": "[16]", "result": "Non-Toxic"},
      {"measurement": "Stability", "setting": "[4]", "result": "Unstable"},
      {"measurement": "Stability", "setting": "[5]", "result": "Stable"}
    ]},
    {"smiles": "CC(C)C[C@H](NC(=O)[C@H](CC(C)C)NC(=O)[C@H](CCCCN)NC(=O)[C@H](CC(C)C)NC(=O)[C@H](CC(C)C)NC(=O)[C@H](CCCCN)NC(=O)[C@@H](N)CCCCNC(=O)[C@H](CC(C)C)NC(=O)[C@H](CC(C)C)NC(=O)[C@H](CCCCN)NC(=O)[C@H](CCCCN)NC(=O)[C@H](CC(C)C)NC(=O)[C@H](CC(C)C)NC(=O)[C@H](CCCCN)NC(=O)[C@@H](N)CC(C)C)C(N)=O", "note": "(H-LKLLKKLL[εLys]KLLKLL-NH2)", "values": [
      {"measurement": "Activity", "setting": "[6]", "result": 98, "unit": "%"},
      {"measurement": "Activity", "setting": "[15]", "result": "Non-Toxic"},
      {"measurement": "Activity", "setting": "[8]", "result": 98, "unit": "%"},
      {"measurement": "Activity", "setting": "[9]", "result": 89, "unit": "%"},
      {"measurement": "Activity", "setting": "[10]", "result": 98, "unit": "%"},
      {"measurement": "Activity", "setting": "[11]", "result": "Active"},
      {"measurement": "Activity", "setting": "[12]", "result": "Active"},
      {"measurement": "Activity", "setting": "[13]", "result": "Active"},
      {"measurement": "Activity", "setting": "[14]", "result": "Active"},
      {"measurement": "Activity", "setting": "[16]", "result": "Non-Toxic"},
      {"measurement": "Stability", "setting": "[5]", "result": "Stable"}
    ]},
    {"smiles": "CC(C)C[C@H](NC(=O)[C@H](CC(C)C)NC(=O)[C@H](CCCCN)NC(=O)[C@H](CC(C)C)NC(=O)[C@H](CC(C)C)NC(=O)[C@H](CCCCN)NC(=O)[C@H](CCCCN)NC(=O)[C@H](CC(C)C)NC(=O)[C@H](CC(C)C)NC(=O)[C@@H](N)CCCCNC(=O)[C@H](CCCCN)NC(=O)[C@H](CC(C)C)NC(=O)[C@H](CC(C)C)NC(=O)[C@H](CCCCN)NC(=O)[C@@H](N)CC(C)C)C(N)=O", "note": "(I: H-KLLKKLLKLL-NH2 / II: H-LKLLK; amide I:1-II:C)", "values": [
      {"measurement": "Activity", "setting": "[1]", "result": "Non-Toxic"},
      {"measurement": "Activity", "setting": "[2]", "result": "Toxic"},
      {"measurement": "Activity", "setting": "[3]", "result": "Toxic"},
      {"measurement": "Stability", "setting": "[4]", "result": "Unstable"},
      {"measurement": "Stability", "setting": "[5]", "result": "Stable"}
    ]}
  ]
}
